≈ marks a conversion by molar mass, not a printed value.
Legend:
[1] = Drug solubility in loading solvent; assay type: physicochemical; settings: sunflower oil, oil or lipid
Procedure: The maximum amount of metoprolol which can dissolve in the volume of ethanol in a 10% solution was precisely weighed out and dissolved in the ethanol—DCM in the HPMCAS-PVP polymer solution before it was electrospun. When coumarin (hydrophobic fluorescent dye) was added, the voltage was increased to 19.1 kv. […] Ketoconazole was dissolved in sunflower oil.

[2] = cited from earlier work

solubility [1] | Structure (SMILES) | solubility in ethanol [2]
~5800 µg/mL (≈ 10.9 mM) | CC(=O)N1CCN(c2ccc(OCC3COC(Cn4ccnc4)(c4ccc(Cl)cc4Cl)O3)cc2)CC1 (centres unmarked) [Ketoconazole] | 
 | COCCc1ccc(OCC(O)CNC(C)C)cc1 (centres unmarked) [Metoprolol] | 31000 µg/mL (≈ 116 mM)

Reference: patent publication US20250268801A1, “DRY CREAMS AND TOPICAL DELIVERY SYSTEMS” (UEA Enterprises Limited, priority 2021, published 2025)
